Source: patent publication US10251862B2, “Cosmetic composition containing hydroxy pyranone derivative compound for promoting differentiation of adipocytes” (AMOREPACIFIC CORPORATION, priority 2014, dated 2019)

Legend:
[1] = test system: Human adipose-derived mesenchymal stem cells (hAT-MSCs); experiment: Inducement of differentiation of adipose-derived mesenchymal stem cells into adipocytes (Oil Red O staining); assay type: cell-based; details: day 14
Description: Human adipose-derived mesenchymal stem cells (hAT-MSCs) were purchased form Lonza, Inc. (Walkersville, Md., USA) and cultured according to the instructions of Lonza, Inc. The adipose-derived mesenchymal stem cells were induced to differentiate into adipocytes according to the instructions of Lonza, Inc. except that troglitazone (TRO) was used instead of indomethacin. Specifically, the mesenchymal stem cells were differentiated into adipocytes by adding to a culture of the mesenchymal stem cells […] insulin, 1 µM dexamethasone (DEXA), 0.5 mM isobutylmethylxanthine (IBMX) and […] TRO. To a test group, the compound of Example 1 was added to the medium at a concentration of 30 μM when inducing the differentiation into adipocytes. A positive control group was treated with 30 μM glibenclamide together with IDX. On day 14 after the adipose-derived mesenchymal stem cells began to differentiate into adipocytes, the cells were washed with 10 mL of phosphate-buffered saline (PBS) and then fixed for 10 minutes using a 10% formalin/PBS solution (0.2 mL/cm^2). The fixed cells were washed once with a 60% isopropanol solution (0.5 mL/cm^2) and lipid bodies in the adipocytes were stained for 10 minutes with Oil Red O dissolved in 60% isopropanol (0.2 mL/cm^2). Then, after staining again with hematoxylin to visualize nuclei, the cells were observed under a microscope.

Adiponectin = experiment: Measurement of expression level of adiponectin in human adipose-derived mesenchymal stem cells (ELISA); assay type: cell-based; details: for effect of increasing adiponectin expression (in words): 60 μM with IDX, day 14, Table 1; for Adiponectin (pg/mL, avg ± S.D.): secreted into culture medium, day 14 of differentiation, together with IDX, sample 60 μM
Description: Adiponectin is a representative protein hormone secreted in adipocytes. It is reported that the expression of adiponectin is increased with the differentiation into adipocytes. Accordingly, the amount of adiponectin secreted into a cell culture medium was measured as a marker of promotion of adipocyte differentiation. In order to measure the secreted amount of adiponectin, human adipose-derived mesenchymal stem cells purchased form Lonza, Inc. were gathered on day 14 after they began to differentiate into adipocytes and the amount of adiponectin was quantified using an adiponectin ELISA kit (R&D Systems, Cat. No. DY1065) as follows (Data were normalized to that of the control group). Specifically, after reacting with a capture antibody on a 96-well plate and washing with a washing buffer, the cells were treated with a sample at a concentration of 60 μM and incubated at room temperature for 2 hours. Subsequently, the cells were incubated with a detection antibody, HRP, a substrate solution and a stop solution for the time specified in the protocol, while washing 3 times between each step. After the final incubation, absorbance was measured at 450 nm using a spectrophotometer.

Row | Compound | differentiation into adipocytes as compared to treatment with IDX only ([1]; 30 μM added to medium when inducing differentiation, Oil Red O staining, microscope (FIG. 1)) | number of the stained cells compared with glibenclamide as positive control ([1]; 30 μM, Oil Red O staining (FIG. 1)) | effect of increasing adiponectin expression (in words) (Adiponectin) | Adiponectin (pg/mL, avg ± S.D.) (Adiponectin)
1 | O=C(/C=C/c1ccc2c(c1)OCO2)OCc1cc(=O)c(O)co1 [Example 1, (2E)-(5-hydroxy-4-oxo-4H-pyran-2-yl)methyl 3-(benzo[d][1,3]dioxo-6-yl)acrylate] | increased differentiation into adipocytes | slightly less | increased the expression of adiponectin | 1435 ± 113 pg/mL
2 | O=C(/C=C/c1ccc2c(c1)OCCO2)OCc1cc(=O)c(O)co1 [Example 2, (2E)-(5-hydroxy-4-oxo-4H-pyran-2-yl)methyl 3-(2,3-dihydroxybenzo[b][1,4]dioxo-7-yl)acrylate] | – | – | increased the expression of adiponectin | 1300 ± 140 pg/mL
3 | COc1ccc(Cl)cc1C(=O)NCCc1ccc(S(=O)(=O)NC(=O)NC2CCCCC2)cc1 [glibenclamide, reference compound] | – | – | – | 1832 ± 110 pg/mL
4 | O=c1cc(CO)occ1O [kojic acid, reference compound] | – | – | did not show an effect of increasing adiponectin expression | 312 ± 103 pg/mL
